Columns and labels:
clinical = details: male, human, in vivo, po, 250 mg
Description: Cefaclor bioequivalence results in 24 healthy Korean men obtained from a previous study were reused for the analysis of cefaclor pharmacokinetics according to PEPT1 genetic polymorphisms in this study. Among the previous bioequivalence results, those for the test formulation were excluded, and only the clinical results for the reference drug, cefaclor 250 mg capsule (Eli Lilly and Company, Indianapolis, IN, USA; Lot number: L1692Y1) were used. […] Table S2 presents the demographic information of the subjects, including physiological and biochemical parameters. The determination of clinical biochemical parameter values was performed by serological analysis through a dry automated analyzer. The analytical instrument was a microside VITROS (Ortho Clinical Diagnostics, Raritan, NJ, USA) operated by reflectance spectrophotometry. Information on the selection and progress of clinical trial participants is presented in Supplementary Information S1, and information on clinical trial design and sampling is presented in Supplementary Information S2. The clinical trial protocol was thoroughly reviewed and officially approved (approval number: 112; 09.03.2004) by the Institutional Review Board of the Institute of Bioequivalence and Bridging Study (Gwangju, Republic of Korea). Information on the high-performance liquid chromatography-ultraviolet (HPLC-UV) method used to quantify cefaclor in plasma samples is briefly presented in Supplementary Information S3.
Genetic polymorphism information for all subjects participating in the clinical trial could be obtained using blank plasma samples derived from each subject. The genetic information targeted in this study was SLC15A1 exons 5 and 16 as the PEPT1 coding gene. SNPs in SLC15A1 exons 5 and 16 were analyzed through pyrosequencing and restriction fragment length polymorphism (RFLP) via polymerase chain reaction (PCR), respectively. The target SNPs in SLC15A1 exons 5 and 16 were c.381G>A and c.1287G>C, respectively, and the genetic polymorphism analysis methods for these were presented in Supplementary Information S4.
The results of the analysis of plasma concentration over time after single oral administration of cefaclor 250 mg capsule could be calculated as cefaclor pharmacokinetic parameter values through non-compartmental analysis (NCA). NCA was performed using Phoenix WinNonlin software (version 8.4, Certara Inc., Princeton, NJ, USA). The main calculated pharmacokinetic parameters are area under the curve in a plasma concentration-time graph (AUC), clearance (CL/F), peak plasma drug concentration after administration (Cmax), elimination half-life (T1/2), mean residence time (MRT), time to reach Cmax (Tmax), and volume of the distribution (V/F). Specific calculation methods for pharmacokinetic parameters are presented in Supplementary Information S5. The calculated pharmacokinetic parameter values were classified according to the genetic polymorphisms of SLC15A1 exons 5 and 16 and compared between genotype groups. Comparison of significant differences between the three genotype groups (SLC15A1 exon 5) was performed using one-way analysis of variance (ANOVA), and comparison of significant differences between two genotype groups (SLC15A1 exon 16) was performed using a two-tailed t test. All significance judgments in statistical tests were based on a p value of 0.05. Additionally, differences in pharmacokinetics between groups were confirmed through a graphic comparison of cefaclor plasma concentration profiles between genotypes classified according to genetic polymorphisms of SLC15A1 exons 5 and 16.
Supplementary Information S2
Clinical trial design and sampling
This bioequivalence study was performed as randomized, single-dose, open-label, crossover, and two-way studies (with a washout period of 7 days). Prior to the clinical trial, subjects had a heparin-locked (150 unit/mL) JELCO 22G angio-catheter (Smiths Medical, Minneapolis, […]

PEPT1 = system: PEPT1; set-up: method as in PMID 9950279; details: Caco-2; cited from earlier work
[1] = format: in vitro ADME; details: human
Description: Supplementary Information S3
Determination of cefaclor plasma concentrations
Concentrations of unchanged cefaclor in plasma were determined by applying high performance liquid chromatography coupled with an ultraviolet (HPLC-UV), which has been established and validated in previous studies. The LC10 ADvp system (Shimadzu Inc., Kyoto, Japan) was used as an analysis device. Briefly describing the analysis method, plasma samples were pretreated through liquid-liquid extraction using 6% (v/v) trichloroacetic acid and then selectively separated on a Symmetry C18 column (5 μm, 4.6 × 150 mm; Waters Co., Milford, MA, USA) using water (mobile phase A) and methanol (mobile phase B) as mobile phases.
The composition ratio of mobile phases A and B was isocratically eluted at 88:12 (v/v), and the quantification of cefaclor was performed at a wavelength of 265 nm. Cephradine, which has a similar structure to cefaclor, was used as an internal standard (IS), and the retention times in the column for cefaclor and IS were 15 min and 23 min, respectively. The lower limit of quantification was 0.1 μg/mL, and the linear calibration curve was secured with a coefficient of determination of 0.99 or higher up to the concentration range of 10 μg/mL. The […]
calibration curve. […]

Row | Structure (SMILES) | substrate interaction with PEPT1 (PEPT1) | also measured
1 | N[C@@H](C(=O)N[C@@H]1C(=O)N2C(C(=O)O)=C(Cl)CS[C@H]12)c1ccccc1 [cefaclor] | interaction substrate with PEPT1 | AUC (clinical; AUCall): 7.59 ± 1.52 µg·h/mL; AUC(0-inf) (clinical; AUCinf): 7.74 ± 1.53 µg·h/mL; Cmax (clinical; Cmax): 6.51 ± 1.9 µg/mL; MRT (clinical; MRT (mean residence time)): 75.6 ± 11.4 min; half-life (clinical; T1/2 (elimination half-life)): 36 ± 3.6 min; Tmax (clinical; Tmax): 49.2 ± 21 min
2 | CC1=C(C(=O)O)N2C(=O)[C@@H](NC(=O)[C@H](N)c3ccc(O)cc3)[C@H]2SC1 [cefadroxil] | may have substrate interactions with PEPT1 | 
3 | Cn1nnnc1SCC1=C(C(=O)O)N2C(=O)[C@@H](NC(=O)[C@H](O)c3ccccc3)[C@H]2SC1 [cefamandole] | may have substrate interactions with PEPT1 | 
4 | C=CC1=C(C(=O)O)N2C(=O)[C@@H](NC(=O)/C(=N\OCC(=O)O)c3csc(N)n3)[C@H]2SC1 [cefixime] | may have substrate interactions with PEPT1 | 
5 | CO/N=C(\C(=O)N[C@@H]1C(=O)N2C(C(=O)O)=C(COC(N)=O)CS[C@H]12)c1ccco1 [cefuroxime] | may have substrate interactions with PEPT1 | 
6 | CC1=C(C(=O)O)N2C(=O)[C@@H](NC(=O)[C@H](N)c3ccccc3)[C@H]2SC1 [cephalexin] | may have substrate interactions with PEPT1 | 
7 | CC(=O)OCC1=C(C(=O)O)N2C(=O)[C@@H](NC(=O)Cc3cccs3)[C@H]2SC1 [cephalotin] | may have substrate interactions with PEPT1 | 
8 | CC1=C(C(=O)O)N2C(=O)[C@@H](NC(=O)[C@H](N)C3=CCC=CC3)[C@H]2SC1 [cephradine] | may have substrate interactions with PEPT1 | stabilities in plasma samples [1]: 85-115%
